Measured values taken from patent publication US4366162A, “Aryl ethers of N-alkyl-piperidines and acid addition salts thereof” (AB Ferrosan, priority 1977, dated 1982).
Converted amounts (≈) assume the structure as drawn. Read-outs that look alike come from different tables or passages of the source.

Columns and labels:
[1] = tested on: histamine induced contraction of guinea pig ileum; test: Antihistaminic activity: histamine induced contraction of guinea pig ileum; conditions: histamine 0.2 μg/ml, 50% inhibition of the contraction
[2] = tested on: acetylcholine induced contraction of guinea pig ileum; test: Anticholinergic activity: acetylcholine induced contraction of guinea pig ileum; conditions: acetylcholine 0.02 μg/ml, 50% inhibition of the contraction
[3] = tested on: amphetamine induced behavioural stereotypies; test: Anti-amphetamine test: inhibition of compulsory gnawing and chewing responses to amphetamine; type: in vivo, Sprague Dawley female rats; conditions: Rattus norvegicus, sc, read-out: ED50, Anti-amphetamine test
Experimental: Conventional types of neuroleptics are potent inhibitors of amphetamine induced behavioural stereotypies. One determines in Sprague Dawley female rats the ability of subcutaneously administered compounds to inhibit compulsory gnawing and chewing responses to a subcutaneous dose of 10 mg/kg of amphetamine administered half an hour after the compound to be tested. The new compounds of formula I are weak antagonists in this test.
(§1) The ED50 -values expressed in milligrams per kilogram body weight in the anti-amphetamine test, in the anti-apomorphine test and in the inhibition of aggression test are presented in Table I.

[4] = tested on: apomorphine induced emesis; test: Anti-apomorphine test: antagonism of apomorphine induced emesis; type: in vivo, dogs; conditions: Canis lupus familiaris, sc, read-out: ED50, Anti-apomorphine test
Experimental: All typical chloropromazine-like neuroleptics are powerful antagonists of apomorphine induced emesis in dogs by virtue of their blocking action on the chemo-emetic trigger zone. The compounds listed in Table I were administered subcutaneously. The animals were challenged half an hour after subcutaneous administration with a standard dose of 0.06 mg/kg of apomorphine hydrochloride (subcutaneously). […] The ED50 -values expressed in milligrams per kilogram body weight in the anti-amphetamine test, in the anti-apomorphine test and in the inhibition of aggression test are presented in Table I.

[5] = tested on: serotonin induced contraction of the rat ileum; test: Antiserotoninergic activity: serotonin induced contraction of the rat ileum; conditions: serotonin 220 ng/ml, 50% inhibition of the contraction
Experimental: They show antiserotoninergic activity evaluated from the effects on serotonin (220 ng/ml) induced contraction of the rat ileum.

[6] = tested on: isolation induced aggressive behaviour; test: Isolation induced aggressive behaviour test (inhibition of aggression); type: in vivo, Male albino mice; conditions: Mus musculus, sc, 1 h, read-out: ED50, Inhibition aggression test
Experimental: Male albino mice were used. Tests were conducted 60 minutes after subcutaneous drug administration.
as §1

[7] = male albino mice, 60 minutes after subcutaneous administration

| SMILES | ED50, Antihistaminic activity [1] | ED50, Anticholinergic activity [2] | ED50 [3] [mg/kg] | ED50 [4] [mg/kg] | ED50, Antiseroto-ninergic activity [5] | ED50 [6] [mg/kg] | ED50 ([3]; rats, subcutaneous, half an hour before 10 mg/kg amphetamine s.c.) [mg/kg] | ED50 ([4]; dogs, subcutaneous, half an hour before 0.06 mg/kg apomorphine hydrochloride s.c.) [mg/kg] | ED50 [6, 7] [mg/kg] |
| --- | --- | --- | --- | --- | --- | --- | --- | --- | --- |
| CN(C)CCCN1c2ccccc2Sc2ccc(Cl)cc21 [Chlorpromazine, chlorpromazine] | 0,03 μg/ml | 1,7 μg/ml | 1.2 | 0.7 | 6 µg/mL (≈ 18.8 µM) | 0.4 |  |  |  |
| O=C(CCCN1CCC(O)(c2ccc(Cl)cc2)CC1)c1ccc(F)cc1 [Haloperidol, haloperidol] |  |  | 0.03 |  |  | 0.8 |  |  |  |
| COc1cc(C(C)=O)ccc1OCCCN1CCC(O)(C(=O)c2ccc(F)cc2)CC1 [I, 1-[3-(p-acetyl-o-methoxyphenoxy)-propyl]-4-(p-fluorobenzoyl)-4-hydroxypiperidine] | 0,06 μg/ml | > 100 µg/mL |  |  | 0,1 μg/ml |  | 20 | 7.1 | 0.5 |
| CCC(=O)OC1(C(=O)c2ccc(F)cc2)CCN(CCCOc2ccc(C(C)=O)cc2OC)CC1 [III] |  |  |  |  |  |  |  |  | 2 |
| COc1cc(C(C)=O)ccc1OCCCCN1CCC(O)(C(=O)c2ccc(F)cc2)CC1 [II] |  |  |  |  |  |  |  |  | 1.5 |
